Data from ChEMBL document CHEMBL1146477, “Bioactive constituents from Asparagus cochinchinensis” (J Nat Prod, 2004).

Key:
[1] = test system: Human immunodeficiency virus 1; experiment: Antiviral activity against HIV1 3B infected in human HOG.R5 cells after 4 days; assay type: functional, organism-based; conditions: Human immunodeficiency virus 1, 3B, HOG.R5, 96 h
[2] = Cytotoxicity against human HOG.R5 cells; assay type: cell-based
KB = experiment: Cytotoxicity against human KB cells; assay type: functional, cell-based
Col2 = experiment: Cytotoxicity against human Col2 cells; assay type: functional, cell-based
LNCaP = experiment: Cytotoxicity against human LNCAP cells; assay type: functional, cell-based
Lu1 = experiment: Cytotoxicity against human Lu1 cells; assay type: functional, cell-based
HUVEC = experiment: Cytotoxicity against HUVEC; assay type: cell-based; conditions: Homo sapiens

Row | Compound | IC50 [1] | CC50 [2] | IC50 (KB) | IC50 (Col2) | IC50 (LNCaP) | IC50 (Lu1) | IC50 (HUVEC)
1 | C=C[C@H](/C=C\c1ccc(O)cc1)c1ccc(O)cc1 [NYASOL] | 46.4 µM | 58.1 µM | > 20 µg/mL | > 20 µg/mL | > 20 µg/mL | > 20 µg/mL | > 20 µg/mL
2 | Oc1ccc(C#C/C=C/COc2ccc(O)cc2)cc1 [ASPARENYDIOL] |  | < 18 µM | 8.5 µM | > 20 µg/mL | > 20 µg/mL | 70.1 µM | > 20 µg/mL
3 | COC1(OC)CC[C@@]2(C)[C@H](CC[C@@H]3[C@@H]2CC(=O)[C@@]2(C)[C@H]3C[C@@H]3O[C@]4(CC[C@@H](C)CO4)[C@@H](C)[C@@]32O)C1 [ASPARACOSIN B] |  |  | > 20 µg/mL | > 20 µg/mL | > 20 µg/mL | > 20 µg/mL | > 20 µg/mL
4 | COc1cc(C#C/C=C/COc2ccc(O)cc2)ccc1O |  | < 17 µM | 40.5 µM | > 20 µg/mL | > 20 µg/mL | 66.5 µM | > 20 µg/mL
5 | COc1cc(/C=C/CO)ccc1O [CONIFERYL ALCOHOL] |  |  | > 20 µg/mL | > 20 µg/mL | > 20 µg/mL | > 20 µg/mL | > 20 µg/mL
6 | C=CC(/C=C\c1ccc(O)cc1)c1ccc(O)c(OC)c1 (stereo not given) |  | 24.1 µM | 31.9 µM | 22.3 µM | 23.4 µM | 15.9 µM | 23.7 µM
7 | C=CC(/C=C\c1ccc(O)cc1)c1ccc(OC)c(O)c1 (stereo not given) |  | 12 µM | 31.9 µM | 41.4 µM | 41.1 µM | 25.5 µM | 58.1 µM
8 | C[C@H]1CC[C@@]2(OC1)O[C@H]1C[C@H]3[C@@H]4CC[C@@H]5C[C@@H](O[C@@H]6O[C@H](CO[C@@H]7OC[C@H](O)[C@H](O)[C@H]7O)[C@@H](O[C@@H]7OC[C@H](O)[C@H](O)[C@H]7O)[C@H](O)[C@H]6O[C@@H]6O[C@H](CO)[C@@H](O)[C@H](O)[C@H]6O)CC[C@]5(C)[C@H]4CC[C@]3(C)[C@H]1[C@@H]2C [ASPARACOSIDE] |  | < 10 µM | 4.8 µM | 5.4 µM | 10.1 µM | 4.2 µM | 4.1 µM
9 | Cc1c2ccncc2c(C)c2c1[nH]c1ccccc12 [ELLIPTECINE] |  | 0.08 µM | 0.16 µM | 1.22 µM | 3.25 µM | 0.08 µM | 0.37 µM
10 | C[C@@H]1CC[C@@]2(OC1)O[C@H]1C[C@H]3[C@@H]4CCC5=CC(=O)CC[C@]5(C)[C@H]4C[C@@H](O)[C@]3(C)[C@@]1(O)[C@@H]2C [ASPARACOSIN A] |  |  | 24.1 µM | > 20 µg/mL | > 20 µg/mL | > 20 µg/mL | > 20 µg/mL
11 | C=CC(CC(=O)c1ccc(O)cc1)c1ccc(O)cc1 (stereo not given) | 74.6 µM | 76.8 µM | > 20 µg/mL | > 20 µg/mL | > 20 µg/mL | > 20 µg/mL | > 20 µg/mL
